Data from patent US10294202B2, “Pyrrolidinones as herbicides” (FMC Corporation, priority 2013, dated 2019).

Columns and labels:
sedge, umbrella = assay: Test B flooded paddy test; assay type: in vivo, Cyperus difformis; settings: 500 g ai/ha, Flood; scale of 0 to 100 where 0 is no effect and 100 is complete control
In short: (§1)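 Plants were grown to the 2-leaf stage, then pots were flooded to 3 cm above the soil and compound was applied directly into the paddy water, with that depth held throughout. After 13 to 15 days in a greenhouse, injury was rated visually against untreated controls on a 0 to 100 scale (100 = complete control).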

wheat = assay: Test A pre-/postemergence herbicide test; assay type: in vivo, Triticum aestivum; settings: Postemergence
In short: (§2)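 Visual 0–100 ratings (100 = complete control) made about 10 days after treatment, greenhouse-held plants compared with untreated controls. Treatments: postemergence sprays on one- to two-leaf plants (2–10 cm tall) and preemergence directed soil sprays after planting in loam–sand, chemicals formulated in non-phytotoxic solvent containing surfactant.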

kochia = assay: Test A pre-/postemergence herbicide test; assay type: in vivo, Kochia scoparia; settings: for Plant response rating, Kochia: 0 to 100 scale
In short: as §2

ryegrass, Italian = assay: Test A pre-/postemergence herbicide test; assay type: in vivo, Lolium multiflorum; settings: for Plant response rating, Ryegrass, Italian: 0 to 100 scale
In short: as §2

rice = assay: Test B flooded paddy test; assay type: in vivo, Oryza sativa; settings: 500 g ai/ha, Flood; scale of 0 to 100 where 0 is no effect and 100 is complete control
In short: as §1

ducksalad = assay: Test B flooded paddy test; assay type: in vivo, Heteranthera limosa; settings: 500 g ai/ha, Flood; scale of 0 to 100 where 0 is no effect and 100 is complete control
In short: as §1

pigweed = assay: Test A pre-/postemergence herbicide test; assay type: in vivo, Amaranthus retroflexus; settings: for Plant response rating, Pigweed: 0 to 100 scale
In short: as §2

giant foxtail = assay: Test A pre-/postemergence herbicide test; assay type: in vivo, Setaria faberii; settings: for Plant response rating, Foxtail, Giant: 0 to 100 scale
In short: as §2

barnyardgrass [1] = assay: Test B flooded paddy test; assay type: in vivo, Echinochloa crus-galli; settings: 500 g ai/ha, Flood; scale of 0 to 100 where 0 is no effect and 100 is complete control
In short: as §1

galium = assay: Test A postemergence herbicide test; assay type: in vivo, Galium aparine
In short: (§3)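 Injury was rated visually about 10 days after treatment on a 0 (no effect) to 100 (complete control) scale, compared with untreated plants. Test chemicals were sprayed postemergence onto greenhouse plants 2–10 cm high at one to two leaves, grown in a loam–sand blend.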

corn = assay: Test A pre-/postemergence herbicide test; assay type: in vivo, Zea mays; settings: Postemergence
In short: as §2

ragweed = assay: Test A pre-/postemergence herbicide test; assay type: in vivo, Ambrosia elatior; settings: for Plant response rating, Ragweed: 0 to 100 scale
In short: as §2

blackgrass = assay: Test A postemergence herbicide test; assay type: in vivo, Alopecurus myosuroides
In short: as §3

barnyardgrass [2] = assay: Test A pre-/postemergence herbicide test; assay type: in vivo, Echinochloa crus-galli
In short: as §2

[3] = 125 g ai/ha, 0 to 100 scale, 0 is no effect, 100 is complete control
[4] = 125 g ai/ha, visual rating, 0 no effect, 100 complete control, approximately 10 days, preemergence
[5] = Postemergence, 125 g ai/ha, 0 is no effect, 100 is complete control
[6] = preemergence, 500 g ai/ha, 0 is no effect and 100 is complete control

## O=C1NCC(c2cccc(C(F)F)c2)C1C(=O)Nc1ccccc1F (racemic) [Compound 163]
sedge, umbrella
  Plant response rating, Sedge, Umbrella: 0
wheat; [3]
  Plant response rating, Wheat: 20
wheat; 500 g ai/ha
  Wheat plant response rating (0 to 100 scale, 0 is no effect, 100 is complete control): 60
kochia; [4]
  Plant response rating, Kochia: 0
kochia; [5]
  Plant response rating, Kochia: 0
kochia; Postemergence, 500 g ai/ha
  Kochia plant response rating (0 to 100 scale, 0 is no effect, 100 is complete control): 0
kochia; [6]
  Plant response rating, Kochia: 50
ryegrass, Italian; [4]
  Plant response rating, Ryegrass, Italian: 0
ryegrass, Italian; [5]
  Plant response rating, Ryegrass, Italian: 0
ryegrass, Italian; Postemergence, 500 g ai/ha
  Ryegrass, Italian plant response rating (0 to 100 scale, 0 is no effect, 100 is complete control): 30
ryegrass, Italian; [6]
  Plant response rating, Ryegrass, Italian: 0
rice
  Plant response rating, Rice: 15
ducksalad
  Plant response rating, Ducksalad: 100
pigweed; [4]
  Plant response rating, Pigweed: 40
pigweed; [5]
  Plant response rating, Pigweed: 0
pigweed; Postemergence, 500 g ai/ha
  Pigweed plant response rating (0 to 100 scale, 0 is no effect, 100 is complete control): 20
pigweed; [6]
  Plant response rating, Pigweed: 40
Giant foxtail; [4]
  Plant response rating, Foxtail, Giant: 90
Giant foxtail; [5]
  Plant response rating, Foxtail, Giant: 70
Giant foxtail; Postemergence, 500 g ai/ha
  Foxtail, Giant plant response rating (0 to 100 scale, 0 is no effect, 100 is complete control): 80
Giant foxtail; preemergence, 500 g ai/ha
  Plant response rating, Foxtail, Giant: 90
Barnyardgrass [1]
  Plant response rating, Barnyardgrass: 90
galium; [3]
  Plant response rating, Galium: 20
galium; 500 g ai/ha
  Galium plant response rating (0 to 100 scale, 0 is no effect, 100 is complete control): 60
corn; [3]
  Plant response rating, Corn: 10
corn; 500 g ai/ha
  Corn plant response rating (0 to 100 scale, 0 is no effect, 100 is complete control): 40
ragweed; [4]
  Plant response rating, Ragweed: 0
ragweed; [5]
  Plant response rating, Ragweed: 0
ragweed; Postemergence, 500 g ai/ha
  Ragweed plant response rating (0 to 100 scale, 0 is no effect, 100 is complete control): 20
ragweed; [6]
  Plant response rating, Ragweed: 40
blackgrass; [3]
  Plant response rating, Blackgrass: 50
blackgrass; 500 g ai/ha
  Blackgrass plant response rating (0 to 100 scale, 0 is no effect, 100 is complete control): 60
Barnyardgrass [2]; 125 g ai/ha, visual rating, 0 to 100 scale, 0 no effect, 100 complete control, approximately 10 days, preemergence
  Plant response rating, Barnyardgrass: 80
Barnyardgrass [2]; Postemergence, 125 g ai/ha, 0 to 100 scale, 0 is no effect, 100 is complete control
  Plant response rating, Barnyardgrass: 90
Barnyardgrass [2]; Postemergence, 500 g ai/ha
  Barnyardgrass plant response rating (0 to 100 scale, 0 is no effect, 100 is complete control): 90
Barnyardgrass [2]; preemergence, 500 g ai/ha, 0 to 100 scale (0 no effect, 100 complete control)
  Plant response rating, Barnyardgrass: 90
